Molecular target: T1, Mineralocorticoid Receptor of the Rats' Kidney (Rattus norvegicus, UniProt P22199)
T1 construct: The kidneys were then removed, decapsulated and homogenized at 0° C; from tissue; host or cells: kidney cytosol (105,000 g supernatant) of adrenalectomised male Sprague-Dawley rats
T1 sequence (P22199 1-981): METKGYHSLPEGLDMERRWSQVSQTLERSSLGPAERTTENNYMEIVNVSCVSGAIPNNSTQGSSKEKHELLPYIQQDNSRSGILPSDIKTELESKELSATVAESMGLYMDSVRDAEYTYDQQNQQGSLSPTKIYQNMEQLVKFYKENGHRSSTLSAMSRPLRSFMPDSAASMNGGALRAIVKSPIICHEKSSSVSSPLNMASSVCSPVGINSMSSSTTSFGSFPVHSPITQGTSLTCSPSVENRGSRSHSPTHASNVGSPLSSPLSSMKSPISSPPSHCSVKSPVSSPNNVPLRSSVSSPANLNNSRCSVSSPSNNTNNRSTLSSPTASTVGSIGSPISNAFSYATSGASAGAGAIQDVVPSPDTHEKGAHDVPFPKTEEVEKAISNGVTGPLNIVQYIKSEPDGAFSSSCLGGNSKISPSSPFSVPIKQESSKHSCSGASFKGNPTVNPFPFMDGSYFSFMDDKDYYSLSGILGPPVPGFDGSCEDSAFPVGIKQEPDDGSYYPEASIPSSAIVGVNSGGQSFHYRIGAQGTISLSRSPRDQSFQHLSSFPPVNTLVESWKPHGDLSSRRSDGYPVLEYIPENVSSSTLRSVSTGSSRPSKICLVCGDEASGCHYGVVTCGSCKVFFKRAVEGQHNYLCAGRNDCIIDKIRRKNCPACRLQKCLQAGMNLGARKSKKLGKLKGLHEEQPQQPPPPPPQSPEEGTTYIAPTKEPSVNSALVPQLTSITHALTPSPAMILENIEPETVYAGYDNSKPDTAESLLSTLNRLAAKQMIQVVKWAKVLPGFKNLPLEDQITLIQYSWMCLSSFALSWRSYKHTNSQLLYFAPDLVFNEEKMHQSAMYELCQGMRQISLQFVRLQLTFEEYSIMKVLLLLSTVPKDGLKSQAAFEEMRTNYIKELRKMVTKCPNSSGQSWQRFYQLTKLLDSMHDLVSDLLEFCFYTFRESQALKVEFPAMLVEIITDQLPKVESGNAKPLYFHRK
Assay: Relative affinity of the bond, mineralocorticoid receptor (tritiated aldosterone displacement)
Type: binding
Conditions: RAB=100(CH)/(CX); for Relative affinity of the bond (RAB), Mineralocorticoid, 1 H: incubation 1 H at 0° C.; for Relative affinity of the bond (RAB), Mineralocorticoid, 24 H: incubation 24 H at 0° C.
Experimental: Mineralocorticoid Receptor of the Rats' Kidney:
Male Sprague-Dawley EOPS rats weighing 140 to 160 g were subjected to supraenalectomy 4 to 8 days earlier and were sacrificed and their kidneys were perfused in situ with 50 ml of a 10 mM Tris, 0.25 M saccharose, HCl buffer pH 7.4. The kidneys were then removed, decapsulated and homogenized at 0° C. with the aid of a Potter teflon-glass (1 g of tissue for 3 ml of buffer). The homogenate was centrifuged for 10 minutes at […] and 0° C. and then to eliminate the fixation of the tritiated aldosterone upon the glucocorticoid receptor, 11β-,17β-dihydroxy-21-methyl-Δ^1,4,6-pregnatrien-20-yn-3-one which was fixed uniquely upon the glucocorticoid receptor was added to the supernatant at a final concentration of 10^−6 M. This supernatant was ultracentrifuged at 105,000 g for 60 minutes at 0° C. and aliquots of the supernatant thus obtained were incubated at 0° C. with a constant concentration (T) of tritiated aldosterone in the presence of increasing concentrations ([…]) of the cold aldosterone or the cold product to be studied. After an incubation time (t), the concentration of bound tritiated aldosterone (B) was measured by the adsorption on dextran carbon technique.
Calculation of the Relative Affinty of the Bond
The calculation of the Relative Affinity of the Bond (RAB) was identical for all the receptors. The following 2 curves were traced; the percentage of the bound tritiated hormone [formula]
was a function of the logarithm of the concentration of the cold reference hormone and [formula]
as a function of the logarithm of the concentration of the cold product tested.
One determined the straight line of the equation [formula]
The intersections of the straight line I50 and of the curves make it possible to evaluate the concentrations of the cold reference hormone (CH) and of the tested cold product (CX) which inhibit to an extend of 50% the binding of the tritiated hormone upon the receptor. The relative affinity of the bond (RAB) of the tested product is determined by the equation

| Compound | Relative affinity of the bond (RAB), Mineralocorticoid, 1 H | Relative affinity of the bond (RAB), Mineralocorticoid, 24 H |
| --- | --- | --- |
| CCCCN(C)C(=O)CCCCCCCCCC[C@H]1C[C@]2(C)[C@@H](O)CC[C@H]2[C@@H]2CCc3cc(O)ccc3[C@@H]12 [Example 13, N-Butyl-3,17β-Dihydroxy-N-Methyl-11β-Δ^1,3,5(10)-Estratriene-Undecanamide] | 0.19 | 0.00 |
| CC(C)N(C)C(=O)CCCCCCCCCC[C@H]1C[C@]2(C)[C@@H](O)CC[C@H]2[C@@H]2CCc3cc(O)ccc3[C@@H]12 [Example 16, 3,17β-dihydroxy-N-methyl-N-isopropyl-11β-Δ^1,3,5(10)-estratriene undecanamide] | 0 | 0 |
| CN(Cc1ccccc1)C(=O)CCCCCCCCCC[C@H]1C[C@]2(C)[C@@H](O)CC[C@H]2[C@@H]2CCC3=CC(=O)CCC3=C12 [Example 17, N-benzyl-17β-hydroxy-N-methyl-3-oxo-11β-Δ^4,9-estradiene undecanamide] | 2 | 0.5 |
| CN(C)CCN(C)C(=O)CCCCCCCCCC[C@H]1C[C@]2(C)[C@@H](O)CC[C@H]2[C@@H]2CCC3=CC(=O)CCC3=C12 [Example 19, N-[2-(dimethylamino)-ethyl]-17β-hydroxy-N-methyl-3-oxo-11β-Δ^4,9-estradiene undecanamide] | 0.7 | 0.1 |
| CC#C[C@]1(O)CC[C@H]2[C@@H]3CCC4=CC(=O)CCC4=C3[C@@H](CCCCCCCCCCC(=O)NCCCC)C[C@@]21C [Example 22, N-butyl-17β-hydroxy-3-oxo-17α-(1-propynyl)-11β-Δ^4,9-estradiene undecanamide] | 0 | 0 |
| CCCCN(C)C(=O)CCCCCCCCCCC[C@H]1C[C@]2(C)[C@@H](O)CC[C@H]2[C@@H]2CCc3cc(O)ccc3[C@@H]12 [Example 24, N-butyl-3,17β-dihydroxy-N-methyl-11β-Δ^1,3,5(10)-estratriene dodecanamide] | 0 | 0 |
| N-butyl-3,17β-dihydroxy-N-methyl-19-nor-11β-Δ^1,3,5(10)-pregnatrien-20-yn undecanamide [Example 21] | 0.4 | 0.5 |
